Results as given in patent US10989721B2, “Additive channels” (Emulate Inc., priority 2016, dated 2021).
Entries after “also recorded” stand apart in the source; their conditions may differ. Structures can show the parent of a compound that is named as a salt. Positions of bridges follow the written chain, without caps; N, C: chain ends. Non-standard residues stand in square brackets, D forms with d. Residues, ends and D or L forms follow the SMILES beside them. hArg = N=C(N)NCCCC[C@H](N)C(=O)O; Mpa = O=C(O)CCS

Tests used:
Assay type in all cases: cell-based, human
[1] = tested on: platelets; experiment: Vessel-On-Chip blood perfusion: platelet coverage/aggregation by fluorescence imaging (CD41 label); conditions: for platelet aggregate formation compared to untreated blood: hu5C8 240 μg/mL, sCD40L 10 ng/ml, alone or combined, 4 donors, 60 μl/minute
Protocol: (§1) Briefly, human blood was drawn in citrate buffer and used within 4 hours. Platelets were stained using fluorescently labeled non-blocking antibodies for the platelet surface marker CD41 and low dosages of fluorescent fibrinogen were added in order to visualize fibrin deposition. Blood was re-calcified in order to re-establish the full coagulation potential, then introduced in the biomimetic vessel-on-chip from the main inlet (embodiments of inlets shown in FIG. 18A-1, FIG. 18A-2 and FIG. 19C). The outlet of the chip was connected to a pulling syringe pump with a system of tubing and connectors made of medical grade silicon that excludes any metal components or potential causes of platelet activation (FIG. 5A).
(§2) After 14 minutes of perfusion, the flow was interrupted and the chips were immediately imaged via fluorescence microscopy (FIG. 18C and FIG. 19D). In healthy conditions, endothelial cells will provide an antithrombotic surface where blood can flow smoothly, and indeed we detected minimal platelet adhesion or fibrin deposition in our vessel-on-chip after blood perfusion in control conditions, FIG. 18C, Blood.
Cell-monolayer integrity: Transmission light microscopy was routinely used to assess cell-monolayer integrity prior to each experiment. Before every experiment, each one of the endothelialized channels was inspected via light microscopy. Samples showing any sign of discontinuity in the endothelium were discarded. Vascular leakage assay as test for tissue integrity: The ability of cells to form a confluent monolayer was monitored for one week measuring vascular leakage of dextran (ThermoFisher). In order to measure vascular leakage the vascular channel was perfused with cell culture medium containing fluorescent dextran-cascade blue (3 kDa, ThermoFisher). The apical compartment was perfused with plain medium (without FBS). At various time points, the effluent from the chip was collected, and the relative fluorescence of the top and bottom compartments were measured using a standard plate reader. […] TNF-alpha Stimulation: In some experiment endothelial cells were stimulate with 50 ng/ml of TNF (Sigma) for 6 hours in order to induce vascular inflammation before blood perfusion. Experiments with Blood: Blood Samples And Endothelium: Citrated human blood (Research Blood Components, Cambridge, Mass.) was used within 4 hours of a blood draw in order to minimize pre-analytical effects on platelet function. Before every experiment, each one of the endothelialized channels (i.e. microchannels having an endothelial cell layer) was inspected via light microscopy. Samples showing any sign of discontinuity in the endothelium were discarded. […] USA) was at room temperature for 20 minutes. Cloning, Expression and Purification: Generation of IgG2σ was previously described (Vafa, O. et al. An engineered Fc variant of an IgG eliminates all immune effector functions via structural perturbations. Methods 65:114-126 (2014)). 5c8 human IgG1 and human IgG2-Sigma Fc variants were produced in Sino Biological Inc. Gene fragments encoding the 5c8 heavy and light chains were synthesized and cloned into mammalian expression vectors. DNA was produced and used in transient transfections with HEK293. Antibodies were purified using Protein A affinity chromatography and formulated in phosphate-buffered saline (DPBS), pH 7.4. Blood Pre-treatment and Perfusion: Formation of IC (preformed IC): Hu5C8, IgG2σ (control) (both provided by Janssen or provided as described herein) For studies with preformed IC, Hu5C8 or IgG2σ as an isotype control were combined with sCD40L (Tonbo Biosciences, San Diego, Calif.) in PBS, in a ratio of 1 molecule of sCD40L to 3000 molecules of antibody. After 20 minutes incubation at room temperature, the solution was diluted in a blood sample to reach the final concentration of 240 μg/ml (Hu5C8) and 10 ng/ml (sCD40L). […]

[2] = tested on: fibrin; experiment: Vessel-On-Chip blood perfusion: fibrin deposition by fluorescent fibrinogen imaging; conditions: for fibrin deposition on the endothelium compared to untreated blood: hu5C8 240 μg/mL, sCD40L 10 ng/ml, alone or combined, 4 donors, 60 μl/minute
Protocol: as §1, §2
Cell-monolayer integrity: Transmission light microscopy was routinely used to assess cell-monolayer integrity prior to each experiment. Before every experiment, each one of the endothelialized channels was inspected via light microscopy. Samples showing any sign of discontinuity in the endothelium were discarded. Vascular leakage assay as test for tissue integrity: The ability of cells to form a confluent monolayer was monitored for one week measuring vascular leakage of dextran (ThermoFisher). In order to measure vascular leakage the vascular channel was perfused with cell culture medium containing fluorescent dextran-cascade blue (3 kDa, ThermoFisher). The apical compartment was perfused with plain medium (without FBS). At various time points, the effluent from the chip was collected, and the relative fluorescence of the top and bottom compartments were measured using a standard plate reader. […] TNF-alpha Stimulation: In some experiment endothelial cells were stimulate with 50 ng/ml of TNF (Sigma) for 6 hours in order to induce vascular inflammation before blood perfusion. Experiments with Blood: Blood Samples And Endothelium: Citrated human blood (Research Blood Components, Cambridge, Mass.) was used within 4 hours of a blood draw in order to minimize pre-analytical effects on platelet function. Before every experiment, each one of the endothelialized channels (i.e. microchannels having an endothelial cell layer) was inspected via light microscopy. Samples showing any sign of discontinuity in the endothelium were discarded. […] USA) was at room temperature for 20 minutes. […]

[3] = tested on: re-calcified blood; experiment: On-chip anticoagulation of outflowing re-calcified blood through the anticoagulant port; conditions: sodium citrate introduced through the anticoagulant port next to the outflow port
Description: In order to functionally test the system, re-calcified blood was perfused through the inlet while anticoagulant, e.g. citrate buffer, was introduced online from the port situated next to the outflow port. Thus, blood obtained from the effluent of chips equipped with the anticoagulant port or without anticoagulant port were compared (FIG. 6). From a qualitative point of view the difference was striking.
In order to functionally test the additive channel (i.e. microfluidic chamber(s)) attached to the outflow port of a Vessel-On-Chip, re-calcified blood was perfused through the inlet port while citrate was introduced online from a port situated next to the outflow port, flowing through the additive channel. Thus, blood obtained from the effluent of chips equipped with the anticoagulant port (additive channel) or without anticoagulant port were compared (FIG. 6). From a qualitative point of view the difference was striking.

[4] = tested on: thrombin anti-thrombin complex (TAT); experiment: Thrombin anti-thrombin (TAT) ELISA in plasma from chip effluent; conditions: outflow samples; TNF-α pre-treatment of endothelium, or sCollagen or hu5C8/sCD40L in blood before perfusion
Protocol: Thrombin converts fibrinogen into fibrin during clot formation, and anti-thrombin plays a role in maintaining homeostasis by inhibiting the effect of thrombin. Formation of TAT in the microdevice confirms that local and intrinsic generation of thrombin, a potent platelet agonist, occurs in the model and that counter regulatory mechanisms for coagulation are retained. Thus, blood sampled from the Vessel-On-Chip was analyzed for thrombin anti-thrombin complex (TAT), an accepted clinical biomarker for procoagulation^48,49. […] An enzyme-linked immunosorbent assay (ELISA) was used to quantify the thrombin anti-thrombin complex (TAT).
Thrombin-Anti Thrombin (TAT) measurement via ELISA: Thrombin Anti-Thrombin (TAT) levels were analyzed in plasma from blood flowing out of the chip device by removing a sample from the outflow port. Thus TAT levels were evaluated in sample effluents collected from the outflow port of the chip using the Human TAT ELISA Kit (Siemens Healthineers) according to the user manual.
Blood sampled from the Vessel-On-Chip outflow port was analyzed for thrombin anti-thrombin complex (TAT), a factor released upon activation of the coagulation cascade and one of the biomarkers associated with thrombotic events occurring in patients affected with deep vein thrombosis (DVT) or SLE^45,46. […]

[5] = tested on: ICAM1; experiment: ICAM1 immunostaining of endothelium on-chip; conditions: TNF-α 50 ng/ml, 6 hours
Description: ICAM1 is shown with examples identified by white arrows. One example of a DAN stained nuclei is shown inside of a white circle.
Diverse structural characteristics of blood clots induced by the two experimental stimuli were captured via scanning electron microscopy (SEM) as colored images in FIG. 18D.

[6] = tested on: hu5C8-mediated thrombosis; experiment: hu5C8-mediated thrombosis on-chip, FcγRIIa dependence (platelet coverage, fibrin deposition, TAT); conditions: with sCD40L 10 ng/ml, IV.3 1 μg/ml pre-block of FcγRIIa, or IgG2σ variant in place of hu5C8
Description: Recent studies conducted on humanized mice expressing the human Fcγ receptors (FCGR2A) have shown that this receptor plays a role in thrombosis leading to the IC-mediated toxicity^12,16,21. […] In order to investigate if the IC5c8-induced thrombosis that we observed in our vessel-on-chip system also relies on an Fc-mediated mechanism, we used two different tool molecules: IgG2σ and IV.3 (FIG. 25A). The IgG2σ variant of hu5C8 has an engineered Fe region^48 that eliminates affinity for the FcγRIIa, while the monoclonal antibody IV.3 is a blocking antibody binding to FcγRIIa. Briefly, equimolar concentrations of IgG2σ or hu5c8 were incubated with 10 ng/ml of sCD40L for 20 minutes to form ICIgG2σ or IC5c8, respectively.
Some of the blood samples were treated with IV.3 (1 μg/ml) for 10 minutes to block the FcγRIIa, and then incubated for 20 more minutes with IC5c8. Finally, blood alone (control) or blood incubated with IC5c8, ICIgG2σ or IV.3 was perfused through the biomimetic microfluidic-on-chip for about 10 minutes. We tested 15 donors and all the tested conditions described above were tested in duplicates and analyzed as percentage of platelet coverage based on fluorescence microscopic imaging (FIG. 25B). Five of the donors were also tested for fibrin deposition (FIG. 25C). Finally, effluents plasma obtained from a total of 7 of the donors (including the 5 mentioned before) were used to assess TAT via ELISA (FIG. 25D). […]
Blood from several human donors were aliquoted into groups for the following treatments: controls (PBS), sCD40L, combined hu5C8/sCD40L, combined hu5C8 (IgG2σ)/sCD40L combined, and combined hu5C8/sCD40L/IV.3. Each condition was tested with a minimum of 3 donors to a maximum of 15 donors, and all conditions were tested in duplicates and analyzed for platelet coverage (FIG. 25B), fibrin deposition (FIG. 25C), or increased formation of TAT measured in the eluates (FIG. 25D). […]

[7] = TNF-α 50 ng/ml 6 hours endothelial pre-treatment or sCollagen 10 μg/ml in blood, vs blood alone

hu5C8: humanized monoclonal IgG1 antibody against CD40L (anti-CD154)
platelet aggregate formation compared to untreated blood [1]: no significant treatment-related effects
fibrin deposition on the endothelium compared to untreated blood [2]: no significant treatment-related effects

O=C(O)CC(O)(CC(=O)O)C(=O)O [sodium citrate]
state of blood collected at the end of each experiment [3]: soluble (not clotted)

sCD40L: soluble CD40 ligand; recombinant human sCD40 Ligand
platelet aggregate formation compared to untreated blood [1]: no significant treatment-related effects
increase in platelet coverage over untreated control, some donors ([1]; sCD40L alone, Example 5): about 2 fold
mean increase in platelet coverage compared to controls ([1]; sCD40L alone, Example 5): not statistically significant
fibrin deposition on the endothelium compared to untreated blood [2]: no significant treatment-related effects

TNF-α
areas of platelet coverage [1, 7]: increased
fibrin signal intensity [2, 7]: increased
levels of TAT [4]: significantly increased; also recorded: elevated
expression of ICAM1 in the endothelium compared to the control [5]: increased expression

N=C(N)NCCCC[C@@H]1NC(=O)CCSSC[C@@H](C(N)=O)NC(=O)[C@@H]2CCCN2C(=O)[C@H](Cc2c[nH]c3ccccc23)NC(=O)[C@H](CC(=O)O)NC(=O)CNC1=O [Eptifibatide] ([Mpa][hArg]GDWPC-NH2; disulfide 1-7)
effects of pro-thrombotic conditions (TNF-α, sCollagen) on platelet coverage and fibrin deposition ([1]; adding Eptifibatide, n=4 donors (FIG. 18E)): suppressed
fibrin signal (image analysis) ([2]; Eptifibatide 2 ug/ml, samples treated with TNF-α, n=4): still detectable

B1: hu5C8 (IgG2σ): IgG2σ variant of hu5C8 with engineered Fc region that eliminates affinity for FcγRIIa (antibody, chains of the INN, looked up, V domains shown)
VH: QVQLVQSGAEVVKPGASVKLSCKASGYIFTSYYMYWVKQAPGQGLEWIGEINPSNGDTNFNEKFKSKATLTVDKSASTAYMELSSLRSEDTAVYYCTRSDGRNDMDSWGQGTLVTVSS
VL: DIVLTQSPATLSVSPGERATISCRASQRVSSSTYSYMHWYQQKPGQPPKLLIKYASNLESGVPARFSGSGSGTDFTLTISSVEPEDFATYYCQHSWEIPPTFGGGTKLEIK
modifications: IgG2σ engineered Fc lacking FcγRIIa binding
hu5C8-mediated thrombosis on-chip (platelet coverage, fibrin deposition, TAT) [6]: did not show signs of thrombosis
hu5C8-mediated thrombosis on-chip (platelet coverage, fibrin deposition, TAT) ([6]; listed as IgG2σ): suppressed
hu5C8-mediated thrombosis on-chip (platelet coverage, fibrin deposition, TAT) ([6]; listed as hu5C8-IgG2σ): not detected
